The record followed here is patent publication US5719291A, “Cyclohexane derivatives” (Hoffmann-La Roche Inc., priority 1991, dated 1998).

≈ marks a conversion by molar mass, not a printed value.

What all share (experiment): In vitro antifungal activity, MIC (Method A)
Assay type in all cases: cell-based

One assay has as its system Candida albicans. Particulars: 3 days, 27° C.; for Antifungal activity MIC: 1×10^5 cells/ml, pH 7.0; for MIC: Candida albicans, 72 h. The protocol:
(§1) The in vitro antifungal activities of representative compounds of the present invention were measured by determining the minimal inhibitory concentration (MIC), which is the concentration of an antifungal at which no fungal growth can be observed.
(§2) The MICs were determined by the microbroth dilution procedure according to NCCLS with the following minor modifications (Galgiani et al., Antimicrob. Agents Chemother., 33, 731 (1989). The medium was solidified with 0.2% low melting point agarose and buffered to pH 7.0 with 0.25%: K2 HPO4 in Yeast Nitrogen Base (Difco Lab.). Inoculum size was 1×10^5 cells/ml, and incubation was carried out for 3 days at 27° C. The MICs ([…]) are shown in Table 1. The reference compound is compound (IA) in U.S. Pat. No. 4,952,604. The compounds used are identified by reference to the Examples in which they were prepared.
(§3) The in vitro antifungal activities of the representative compounds of the present invention shown in Table 1 and Table 2 were measured by determining the minimal inhibitory concentrations (MIC: Method A) or 80% growth inhibition concentration (IC80 : Method B) respectively. MIC is defined as the concentration of an antifungal at which growth of fungi is not observed and IC80 is the concentration where cell turbidity measured at OD630 is reduced by 80%.
(§4) Antifungal activities were determined by either method A or B (see below) using microtest plates according NCCLS with minor modifications (Galgiani et at., Antimicrob. Agents Chemother. 33, 731 (1989)).
(§5) (Method A) The medium was solidified with 0.2% low melting point agarose and buffered to pH 7.0 with 0.25% K2 HPO4 in Yeast Nitrogen Base (Difco Lab.). Inoculum size was 1×10^5 cells/ml, and incubation was carried out for 3 days at 27° C. The reference compound is compound (IA) in U.S. Pat. No. 4,952,604.

A further assay deals with Aspergillus fumigatus. Particulars: 3 days, 27° C.; for Antifungal activity MIC: 1×10^5 cells/ml, pH 7.0; for MIC: Aspergillus fumigatus, 72 h. The protocol:
as §1, §2, §3, §4, §5

For a further assay, the system named is Cryptococcus neoformans. Particulars: 3 days, 27° C.; for Antifungal activity MIC: 1×10^5 cells/ml, pH 7.0; for MIC: Cryptococcus neoformans, 72 h. How it is done: as §1, §2, §3, §4, §5
[1] abbreviates: pH 7, Candida albicans CY1002, 1×10^5 cells/ml.
[2] abbreviates: pH 7, Candida albicans CY1005, 1×10^5 cells/ml.
[3] abbreviates: pH 7, Candida albicans CY3003, 1×10^5 cells/ml.
Where [4] appears, read: pH 7, Aspergillus fumigatus CF1003, 1×10^5 cells/ml.
Where [5] appears, read: pH 7, Aspergillus fumigatus CF1004, 1×10^5 cells/ml.
Where [6] appears, read: pH 7, Aspergillus fumigatus CF1023, 1×10^5 cells/ml.
The mark [7] stands for this setting: pH 7, Cryptococcus neoformans CY1057, 1×10^5 cells/ml.
Where [8] appears, read: pH 7, Cryptococcus neoformans CY1059, 1×10^5 cells/ml.
[9] abbreviates: pH 7, Cryptococcus neoformans CY1061, 1×10^5 cells/ml.

In the case of “(2S,3R,4S,5S)-4-methoxy-5-methyl-2-[(E)-1-nonenyl]tetra-hydro-2H-pyran-3-ylglycinate trifluoroacetic acid salt [Example 24]”, the “Antifungal activity MIC” value in the assay with Candida albicans (Candida albicans CY1002) came out at 50 µg/mL; in the assay with Candida albicans (Candida albicans CY1005), 100 µg/mL; in the assay with Candida albicans (Candida albicans CY3003), 50 µg/mL; with Aspergillus fumigatus (Aspergillus fumigatus CF1003), 50 µg/mL; in the assay with Aspergillus fumigatus (Aspergillus fumigatus CF1004), 25 µg/mL; with Aspergillus fumigatus (Aspergillus fumigatus CF1023) it was 50 µg/mL. Besides, the “Antifungal activity MIC” value in the assay with Cryptococcus neoformans (Cryptococcus neoformans CY1057) was 25 µg/mL; in the assay with Cryptococcus neoformans (Cryptococcus neoformans CY1059), 25 µg/mL; in the assay with Cryptococcus neoformans (Cryptococcus neoformans CY1061) it was 50 µg/mL.
In the case of `CCCCCCCCO[C@@H]1CCC(C)(C)C[C@H]1CC(O)CN` (relative stereo) [Example 84, 1-[(1S^*,2R^*)-5,5-dimethyl-2-octyloxycyclohexyl]-3-amino-2-propanol], the MIC (usually the smallest concentration in the dilution series that meets the test's criterion for growth inhibition) was determined as 12.5 µg/mL (≈ 39.9 µM) in the assay on Candida albicans (setting [1]); 12.5 µg/mL (≈ 39.9 µM) in the assay on Candida albicans (setting [2]); 12.5 µg/mL (≈ 39.9 µM) in the assay with Candida albicans (setting [3]); 25 µg/mL (≈ 79.7 µM) against Aspergillus fumigatus (setting [4]); 6.25 µg/mL (≈ 19.9 µM) in the assay on Aspergillus fumigatus (setting [5]); 6.25 µg/mL (≈ 19.9 µM) in the assay with Aspergillus fumigatus (setting [6]). The results for the MIC with Cryptococcus neoformans (setting [7]), in the assay on Cryptococcus neoformans (setting [8]) and against Cryptococcus neoformans (setting [9]) were 3.13 µg/mL (≈ 9.98 µM), 6.25 µg/mL (≈ 19.9 µM) and 6.25 µg/mL (≈ 19.9 µM), respectively.
Turning to `CCCCCCC/C=C/[C@@H]1OC[C@H](C)C2(OCCO2)[C@H]1OC(=O)CN.O=C(O)C(F)(F)F` [Example 46, (6S,7S,10S)-10-methyl-7-[(E)-1-nonenyl]-1,4,8-trioxaspiro[4,5]decan-6-yl glycinate trifluoroacetic acid salt], the MIC in the assay with Candida albicans (setting [1]) stood at 50 µg/mL; against Candida albicans (setting [2]) it was 25 µg/mL; against Candida albicans (setting [3]), 25 µg/mL; with Aspergillus fumigatus (setting [4]), 25 µg/mL; with Aspergillus fumigatus (setting [5]), 25 µg/mL; in the assay on Aspergillus fumigatus (setting [6]), 25 µg/mL. Also, the MIC against Cryptococcus neoformans (setting [7]) was 25 µg/mL; with Cryptococcus neoformans (setting [8]), 50 µg/mL; against Cryptococcus neoformans (setting [9]), 50 µg/mL.
`CCCCCCC/C=C\[C@@H]1OC[C@H](C)[C@H](OCC)[C@@H]1OC(=O)CN.O=C(O)C(F)(F)F` [Example 27, (2S,3R,4S,5S)-4-ethoxy-5-methyl-2-[(Z)-1-nonenyl]tetrahydro-2H-pyran-3-yl glycinate trifluoroacetic acid salt]: the MIC was 100 µg/mL against Candida albicans (setting [1]); 100 µg/mL in the assay with Candida albicans (setting [2]); 50 µg/mL with Candida albicans (setting [3]); 50 µg/mL in the assay with Aspergillus fumigatus (setting [4]); 100 µg/mL in the assay on Aspergillus fumigatus (setting [5]); 50 µg/mL in the assay with Aspergillus fumigatus (setting [6]). Further, the minimal inhibitory concentration (MIC) in the assay with Cryptococcus neoformans (setting [7]) stood at 6.25 µg/mL; with Cryptococcus neoformans (setting [8]), 12.5 µg/mL; with Cryptococcus neoformans (setting [9]), 12.5 µg/mL.
Turning to `CCC/C=C/C=C/C=C\[C@@H]1OC[C@H](C)[C@H](OC)[C@H]1OC(=O)CN.O=CO` [Example 12, (2S,3R,4S,5S)-4-methoxy-5-methyl-2-[(1Z,3E,5E)-1,3,5-nonatrienyl]tetrahydro-2H-pyran-3-yl glycinate formic acid salt], the minimum inhibitory concentration (MIC) is 200 µg/mL against Candida albicans (setting [1]); more than 200 µg/mL in the assay with Candida albicans (setting [2]); more than 200 µg/mL in the assay with Candida albicans (setting [3]); 25 µg/mL in the assay with Aspergillus fumigatus (setting [4]); 12.5 µg/mL with Aspergillus fumigatus (setting [5]); 25 µg/mL with Aspergillus fumigatus (setting [6]). For the same molecule, the values for the MIC in the assay on Cryptococcus neoformans (setting [7]), in the assay with Cryptococcus neoformans (setting [8]) and in the assay on Cryptococcus neoformans (setting [9]) were 1.56 µg/mL, 3.13 µg/mL and 6.25 µg/mL, respectively.
On to `CCCCC/C=C/C=C/[C@@H]1OC[C@H](C)[C@H](OC)[C@H]1OC(=O)CN.O=CO` [Example 47, (2S,3R,4S,5S)-4-methoxy-5-methyl-2-[(1E,3E)-1,3-nonadienyl]tetrahydro-2H-pyran-3-yl glycinate formic acid salt], for which the MIC against Candida albicans (setting [1]) came to 100 µg/mL; with Candida albicans (setting [2]), 100 µg/mL; against Candida albicans (setting [3]), 100 µg/mL; in the assay with Aspergillus fumigatus (setting [4]), 25 µg/mL; in the assay on Aspergillus fumigatus (setting [5]), 25 µg/mL; with Aspergillus fumigatus (setting [6]), 25 µg/mL. Also, the MIC was found to be 12.5 µg/mL in the assay with Cryptococcus neoformans (setting [7]), 12.5 µg/mL against Cryptococcus neoformans (setting [8]) and 25 µg/mL in the assay with Cryptococcus neoformans (setting [9]).
